Data set [1] has as its target T1, human apical sodium dependent bile acid transporter (hASBT) (Homo sapiens, UniProt Q12908).
T1 sequence (Q12908 1-348): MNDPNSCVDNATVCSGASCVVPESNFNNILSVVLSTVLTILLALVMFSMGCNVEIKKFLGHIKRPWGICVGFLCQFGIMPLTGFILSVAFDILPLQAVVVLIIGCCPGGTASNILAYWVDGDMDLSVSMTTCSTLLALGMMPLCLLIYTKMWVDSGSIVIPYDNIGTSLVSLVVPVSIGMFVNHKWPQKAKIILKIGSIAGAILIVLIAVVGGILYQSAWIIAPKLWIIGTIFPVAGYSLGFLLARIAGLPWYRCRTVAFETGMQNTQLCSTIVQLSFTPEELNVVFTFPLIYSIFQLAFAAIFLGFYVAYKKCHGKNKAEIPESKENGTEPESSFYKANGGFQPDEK
Put plainly: Inhibition of taurocholate uptake by ASBT in stably transfected ASBT-MDCK cells. It counts as cell-based.

Data set [2] addresses T2, human Na+/taurocholate cotransporting polypeptide (hNTCP) (Homo sapiens, UniProt Q14973).
T2 sequence (Q14973 1-349): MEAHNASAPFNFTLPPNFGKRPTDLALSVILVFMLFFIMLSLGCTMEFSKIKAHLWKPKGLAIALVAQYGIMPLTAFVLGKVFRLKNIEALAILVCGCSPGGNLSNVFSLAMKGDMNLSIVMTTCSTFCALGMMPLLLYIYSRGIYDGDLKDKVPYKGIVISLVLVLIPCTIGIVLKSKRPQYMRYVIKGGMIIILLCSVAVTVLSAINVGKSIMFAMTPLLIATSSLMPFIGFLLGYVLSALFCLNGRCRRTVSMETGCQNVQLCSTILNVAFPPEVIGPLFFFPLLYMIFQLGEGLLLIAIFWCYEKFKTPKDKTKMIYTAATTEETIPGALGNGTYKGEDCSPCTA
As to the kind of experiment: Inhibition of taurocholate uptake by NTCP in stably transfected NTCP-HEK cells. It counts as cell-based.

For data set [3], the target named is T3, hASBT (sodium-independent passive uptake) (Homo sapiens, UniProt Q12908).
T3 sequence (Q12908 1-348): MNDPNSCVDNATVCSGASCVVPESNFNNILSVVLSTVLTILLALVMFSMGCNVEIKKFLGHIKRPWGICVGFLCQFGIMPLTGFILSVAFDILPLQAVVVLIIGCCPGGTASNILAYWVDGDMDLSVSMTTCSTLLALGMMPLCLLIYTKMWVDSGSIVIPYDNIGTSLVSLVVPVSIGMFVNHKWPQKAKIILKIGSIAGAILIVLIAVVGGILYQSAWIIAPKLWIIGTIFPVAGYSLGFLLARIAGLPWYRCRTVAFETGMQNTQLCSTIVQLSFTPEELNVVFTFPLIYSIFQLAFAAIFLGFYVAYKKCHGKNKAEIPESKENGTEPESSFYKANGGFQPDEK
As to the kind of experiment: Uptake of substrate by ASBT in ASBT-MDCK cells. It counts as cell-based. Conditions: human; ASBT-MDCK cells, sodium free buffer; read-out: passive permeability (Pp).

The target in data set [4] is T1, human apical sodium dependent bile acid transporter (hASBT). As to the kind of experiment: Uptake of substrate by ASBT in ASBT-MDCK cells. The following applies: ASBT uptake. It counts as cell-based.
Data set [5] deals with T4, hNTCP (sodium-independent passive uptake) (Homo sapiens, UniProt Q14973).
T4 sequence (Q14973 1-349): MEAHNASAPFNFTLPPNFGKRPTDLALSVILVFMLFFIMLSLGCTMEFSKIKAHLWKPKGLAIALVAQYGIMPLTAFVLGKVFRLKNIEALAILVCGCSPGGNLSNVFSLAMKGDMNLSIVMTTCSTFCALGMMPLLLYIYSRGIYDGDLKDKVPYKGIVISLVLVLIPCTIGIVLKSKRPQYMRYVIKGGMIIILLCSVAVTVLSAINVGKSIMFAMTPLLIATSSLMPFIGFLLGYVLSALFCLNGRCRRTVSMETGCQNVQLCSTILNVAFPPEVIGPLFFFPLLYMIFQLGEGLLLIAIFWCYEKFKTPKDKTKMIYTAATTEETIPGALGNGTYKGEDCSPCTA
As to the kind of experiment: Uptake of substrate by NTCP in NTCP-HEK cells. Conditions: human; NTCP-HEK cells, sodium free buffer; read-out: passive permeability (Pp). It counts as cell-based.

Data set [6] addresses T2, human Na+/taurocholate cotransporting polypeptide (hNTCP). As to the kind of experiment: Uptake of substrate by NTCP in NTCP-HEK cells. It counts as cell-based. Conditions: NTCP uptake.
The nature of another data set: Solubility in buffer. It counts as physicochemical. The following applies: phosphate buffer, aqueous buffer, thermodynamic from solid; pH 6.8, room temperature, overnight, n=3, ±SEM. Here is the method: Five (5) mg of compound was added to silanized centrifuge tubes containing 100 μL phosphate buffer at pH 6.8 (n=3), shaken, and left overnight at room temperature. […] Supernatant was diluted 10,000-fold with 1:1 ACN:water and analyzed by LC/MS/MS.

The nature of data set [7]: Murine gallbladder imaging (mouse 6), 19F MRI and LC/MS/MS. It counts as in vivo, C57BL/6 mice. The following applies: for concentration at 8.2 h: male, mouse 6, after imaging.
Data set [8] can be described thus: Disposition in Asbt knockout (Slc10a2-/-) and wild-type mice. It counts as in vivo. The following applies: for gallbladder concentration / concentration at 7 h: n=4, 7 h after gavage 150 mg/kg, ±SEM; for gallbladder concentration: LC/MS/MS; for concentration at 7 h: mouse, oral, 150 mg/kg. Here is the method: Asbt-deficient (Slc10a2-/-) mice were obtained from a colony maintained at the Wake Forest School of Medicine. […] Gallbladder, liver, and plasma samples were collected at 7 h after dosing, and tissues were processed as described above and analyzed by LC/MS/MS.

Data set [9] has as its target choloylglycine hydrolase from Clostridium perfringens (Clostridium perfringens, UniProt P54965). The following applies: 2 mM compound, 15 U CGH, pH 5.6, 37° C., ±SEM.
A short description of data set [10]: Oral disposition characterization: pilot study in mice. The following applies: for concentration at 7 h: male, C57BL/6, mouse, po.
Data set [11] can be described thus: In vitro stability in 0.1 M HCl, rat plasma, rat liver s9 fraction and simulated intestinal fluid. The following applies: 37° C.
The target of data set [12] is T2, human Na+/taurocholate cotransporting polypeptide (hNTCP). Conditions: literature / historic data, same cell line; read-out: NTCP Km; cited from earlier work.
Substrate in data set [13]: [H][C@@]12C[C@H](O)CC[C@]1(C)[C@@]1([H])C[C@H](O)[C@@]3(C)[C@@]([H])(CC[C@]3([H])C(C)CCC(=O)N(CCNC(=O)C(F)(F)F)CC(=O)O)[C@]1([H])[C@H](O)C2
Put plainly: Uptake of substrate by ASBT in ASBT-MDCK cells. It counts as cell-based, human. The following applies: other: uptake, 0-200 uM donor, hASBT-MDCK cells, ±SEM; 37.0 °C.

Substrate in data set [14]: [H][C@@]12C[C@H](O)CC[C@]1(C)[C@@]1([H])C[C@H](O)[C@@]3(C)[C@@]([H])(CC[C@]3([H])C(C)CCC(=O)N(CCNC(=O)C(F)(F)F)CC(=O)O)[C@]1([H])[C@H](O)C2
Put plainly: Uptake of substrate by NTCP in NTCP-HEK cells. The following applies: other: uptake, 0-200 uM donor, hNTCP-HEK cells, ±SEM; 37.0 °C. It counts as cell-based, human.

Where [15] appears, read: individual mice 1-5, 7 h after oral 150 mg/kg, LC/MS/MS, 150 mg/kg.

In brackets after ≈: the same amount, converted by molar mass. Several values for one entry are separate records, joined by “and”; a condition that tells them apart may be missing. Equal entries are not always repeated. Entries after “also recorded” stand apart in the source; their conditions may differ. Where two headings read alike, the source gives them in different places.

Chain of choloylglycine hydrolase from Clostridium perfringens (P54965 whole entry, looked up): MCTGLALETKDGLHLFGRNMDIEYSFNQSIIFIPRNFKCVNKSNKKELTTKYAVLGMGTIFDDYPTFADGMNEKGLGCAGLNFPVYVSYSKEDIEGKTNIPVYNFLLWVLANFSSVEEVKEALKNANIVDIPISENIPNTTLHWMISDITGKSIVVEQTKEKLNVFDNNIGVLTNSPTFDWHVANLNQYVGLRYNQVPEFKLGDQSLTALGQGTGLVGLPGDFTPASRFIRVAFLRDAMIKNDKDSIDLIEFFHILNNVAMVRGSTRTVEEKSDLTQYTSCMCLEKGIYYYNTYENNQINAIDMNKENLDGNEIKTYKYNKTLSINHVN

One may read the Ki as a dissociation constant, usually derived from enzyme kinetics or from competition with a known ligand. Read a low Ki as a stronger hold on the target. What is called solubility is the dissolved amount per volume that the medium holds. A lower solubility goes with little dissolved substance. With `CC(CCC(=O)N(CCNC(=O)C(F)(F)F)CC(=O)O)[C@H]1CC[C@H]2[C@@H]3[C@H](O)C[C@@H]4C[C@H](O)CC[C@]4(C)[C@H]3C[C@H](O)[C@]12C` (stereo partly shown) [CA-sar-TFMA, Cholic acid-sarcosine-trifluoro-N-methyl-acetamide], the Ki in [1] was 21.5 ± 4 µM; in data set [2], 2.64 ± 0.55 µM. The values for the Papp in data set [3] and in [5] were 0.21 ×10⁻⁶ cm/s and 0.043 ×10⁻⁶ cm/s, respectively. In addition, the figures for the “normVmax (normalized to taurocholate Vmax on the same occasion)” value in data set [4] and in [6] were 1.50 and 0.24, respectively. The molecule also came in with a solubility in the data set “Solubility in buffer” of 33500 ± 1600 µM (≈ 20.3 mg/mL). Besides, the concentration at 8.2 h turned out to be 7660 nM in [7] (C57BL/6, liver, oral 150 mg/kg, read-out: liver concentration) and 870 nM in data set [7] (C57BL/6, plasma, oral 150 mg/kg, read-out: plasma concentration). Moreover, the “LC/MS/MS gallbladder concentration, fold lower than by MRI” value in data set [7] (mouse 6) came to 2.3 fold. For the same molecule, in data set [7] (mouse 6, 6.2-8.2 h after oral gavage of 150 mg/kg), the “gallbladder concentration by 19F MRI (gallbladder ROI normalized to phantom ROI)” value was determined as 34.2 mM. Also, in data set [7] (mouse 6, after imaging and euthanasia, oral 150 mg/kg), the “gallbladder concentration by LC/MS/MS” value worked out at 14.8 mM. In addition, the “gallbladder concentration, fold higher in WT than in knockout mice” value in data set [8] (7 h after gavage 150 mg/kg) worked out at 16.1 fold. The values for the gallbladder concentration in [8] (Asbt knockout (Slc10a2-/-) mice) and in data set [8] (wild-type (WT) mice) were 0.41 ± 0.14 mM and 6.61 ± 0.98 mM, respectively. The concentration at 7 h in data set [8] (liver, Asbt knockout mice, read-out: Liver concentration) was found to be 900 ± 30 nM; in data set [8] (liver, WT mice, read-out: Liver concentration), 4970 ± 1470 nM; in data set [8] (plasma, Asbt knockout mice, read-out: Plasma concentration), 220 ± 90 nM; in data set [8] (plasma, WT mice, read-out: Plasma concentration) it was 3800 ± 4150 nM; in [10] (liver, 150 mg/kg, Average liver concentration, mean of mice 1-5, 7 h after oral 150 mg/kg, ±SEM), 14500 ± 600 nM; in data set [10] (plasma, 150 mg/kg, Average plasma concentration, mean of mice 1-5, 7 h after oral 150 mg/kg, ±SEM), 1400 ± 140 nM. The molecule further returned a concentration at 7 h in [10] (plasma, 150 mg/kg, Plasma Conc., individual mice 1-5, 7 h after oral 150 mg/kg, LC/MS/MS) of 1310 nM. In addition, in data set [9], the “compound remaining after 4 h” value is 103.9±2.9%. Besides, the “Gallbladder Conc.” value in data set [10] (setting [15]) is 16.5 mM (2×) and 25.0 mM and 17.2 mM and 16.9 mM. Moreover, the “Liver Conc.” value in data set [10] (setting [15]) is 20.8 µM and 16.0 µM and 12.9 µM and 9.5 µM and 13.5 µM. In addition, in [10] (setting [15]), the “Plasma Conc.” value was 1490 nM and 1810 nM and 940 nM and 1470 nM. In [10] (mean of mice 1-5, 7 h after oral 150 mg/kg, ±SEM), this molecule came in with an Average gallbladder concentration of 18.4 ± 1.6 mM. Also, the “accumulation in liver and plasma, fold lower than in gallbladder” value in data set [10] (on average, 7 h after oral 150 mg/kg) is recorded as “at least 1,000 fold”. In addition, the “stability: concentration at t=4 h vs initial concentration” value is “no evidence of degradation; also recorded: not different from initial concentration” in data set [11] (0.1 M HCl, 5 μM); “no evidence of degradation; also recorded: not different from initial concentration” in data set [11] (rat plasma, 5 μM); “no evidence of degradation; also recorded: not different from initial concentration” in data set [11] (simulated intestinal fluid with pancreatic enzymes (SIF), pH 7.5, 5 μM).

What is called Km is the concentration of substrate that gives half-maximal velocity. With `C[C@H](CCC(=O)NCCS(=O)(=O)O)[C@H]1CC[C@H]2[C@@H]3[C@H](O)C[C@@H]4C[C@H](O)CC[C@]4(C)[C@H]3C[C@H](O)[C@]12C` [taurocholate], the Km in data set [12] is 5.31 µM.

B1: human apical sodium dependent bile acid transporter (hASBT) (Homo sapiens) (protein)
chain: MNDPNSCVDNATVCSGASCVVPESNFNNILSVVLSTVLTILLALVMFSMGCNVEIKKFLGHIKRPWGICVGFLCQFGIMPLTGFILSVAFDILPLQAVVVLIIGCCPGGTASNILAYWVDGDMDLSVSMTTCSTLLALGMMPLCLLIYTKMWVDSGSIVIPYDNIGTSLVSLVVPVSIGMFVNHKWPQKAKIILKIGSIAGAILIVLIAVVGGILYQSAWIIAPKLWIIGTIFPVAGYSLGFLLARIAGLPWYRCRTVAFETGMQNTQLCSTIVQLSFTPEELNVVFTFPLIYSIFQLAFAAIFLGFYVAYKKCHGKNKAEIPESKENGTEPESSFYKANGGFQPDEK
Take B1: in [13], the Km turned out to be 73.2 ± 7.0 µM.

B2: human Na+/taurocholate cotransporting polypeptide (hNTCP) (Homo sapiens) (protein)
chain: MEAHNASAPFNFTLPPNFGKRPTDLALSVILVFMLFFIMLSLGCTMEFSKIKAHLWKPKGLAIALVAQYGIMPLTAFVLGKVFRLKNIEALAILVCGCSPGGNLSNVFSLAMKGDMNLSIVMTTCSTFCALGMMPLLLYIYSRGIYDGDLKDKVPYKGIVISLVLVLIPCTIGIVLKSKRPQYMRYVIKGGMIIILLCSVAVTVLSAINVGKSIMFAMTPLLIATSSLMPFIGFLLGYVLSALFCLNGRCRRTVSMETGCQNVQLCSTILNVAFPPEVIGPLFFFPLLYMIFQLGEGLLLIAIFWCYEKFKTPKDKTKMIYTAATTEETIPGALGNGTYKGEDCSPCTA
Turning to B2, in data set [14], the Km was 2.19 ± 0.63 µM.

The values are drawn from patent publication US9597417B2, “Compositions and methods to evaluate hepatobiliary/gastrointestinal health, enterohepatic circulation, and drug interactions” (The United States of America as represented by the …, priority 2013, dated 2017).
